Among the data in US20030171361A1, “Pyrrolopyrimidinone derivatives, process of preparation and use” (priority 2002, published 2003) are IC50 and melting point values, retold here.

The target of data set [1] is rabbit platelet PDE V (Oryctolagus cuniculus, UniProt G1SX67). The data set is described as follows: inhibition of cGMP PDE V activity (PDE SPA assay kit, [3H]-cGMP). In kind it is biochemical. Particulars: in vitro, inhibitors of cGMP PDE V; rabbit platelet enzyme, 30° C., 30 min. How it is done:
The rabbit platelet PDE V was prepared using the method described by Hidaka et al.(Biochim. Biophys. Acta., 429: 485-497, 1976) with minor modification. The platelet-rich plasma (PRP) was prepared by centrifugation of freshly obtained heparinized whole blood at 360 g. Platelets were isolated from the PRP by centrifugation at 1,200 g. Platelet homogenates were prepared in the homogenization buffer (50 mM Tris-HCl buffer containing 1 mM MgCl2, pH 7.4) by sonication for 30 s per 1 mL. The homogenized solutions were then centrifuged at 40,000×g for 2 h at 4° C. The supernatant was loaded on the DEAE-cellulose column (20 mL bed volume, Sigma) pre-equilibrated with equilibration buffer (50 mM Tris-acetate containing 3.75 mM 2-mercaptoethanol, pH 6.0).The column was then washed with 60 mL of equilibration buffer. The PDE isozymes were eluted using a continuous gradient of 0 to 600 mM sodium acetate in the equilibration buffer (60 mL total volume). The 1.0 mL fractions were collected. A flow rate of 60 mL/h was used throughout the ion-exchange chromatography procedure. PDE activities on cAMP and cGMP were characterized as described below. The characterized fractions were pooled and stored at −80 ° C. until the inhibition studies
The cyclic nucleotide PDE V activity was determined using PDE SPA assay kit (Amersham Pharmacia biotech, UK).Each reaction mixture (100 μL total volume) consisted of the column elute containing PDE V (10 μL), [^3H]-cGMP (5 μCi/mL), bovine serum albumin (0.5 mg/mL), and MgCl2 (5 mM) in Tris-HCl buffer (15 mM, pH 7.5).The reactions were initiated by the addition of PDE V and the samples were incubated at 30° C. for 30 min, after which the reaction was stopped by the addition of 50 μL of SPA beads. The reaction tube was then settled for 20 min and was counted on the scintillation counter (Tri-carb 1500, Packard, USA). For the inhibition study of PDE V activity, the test compounds were dissolved in dimethyl sulfoxide (DMSO) and was diluted with distilled water. The final concentration of DMSO was less than 0.2% (v/v).All the inhibition experiments were conducted tinder the conditions where the level of cGMP hydrolysis (lid not exceed 15%, and the product formation increased linearly with time and the amount of enzyme.
The following Table illustrates the in vitro activities for a range of the compounds of the invention as inhibitors of cGMP PDE V.

The term IC50 denotes the concentration that inhibits the measured activity by half. The low end stands for higher potency, the high end for lower potency. What is called melting point is the temperature of the solid-liquid transition.

In data set [1], `CCCOc1ccc(S(=O)(=O)N2CCN(CCO)CC2)cc1-c1nc2c(CCC)cn(C)c2c(=O)[nH]1` [Example 53, 52-(5-(4-(2-hydroxyethyl)piperazinylpiperazin-1-ylsulfonyl)-2-n-propoxyphenyl)-15-methyl-37-n-propyl-1,63,5-dihydro-7H4H-pyrrolo[4,33,2-d]pyrimidin-74-one] had a 50% inhibitory concentration (IC50) of 0.49 nM.

In data set [1], `CCCc1cn(C)c2c(=O)[nH]c(-c3cc(S(=O)(=O)N4CCN(CCO)CC4)ccc3OCC)nc12` [Example 51, 52-(2-ethoxy-5-(4-(2-hydroxyethyl)piperazinylpiperazin-1-ylsulfonyl)phenyl)-15-methyl-37-n-propyl-1,63,5-dihydro-7H4H-pyrrolo[4,33,2-d]pyrimidin-74-one] returned an IC50 of 2.06 nM.

For the compound `CCCOc1ccc(S(=O)(=O)N2CCC(CCC(=O)O)CC2)cc1-c1nc2c(CCC)cn(C)c2c(=O)[nH]1` [Example 124, 52-(5-(4-(2-hydroxycarbonylethyl)piperidinylpiperidin-1-ylsulfonyl)-2-n-propoxyphenyl)-15-methyl-37-n-propyl-1,63,5-dihydro-7H4H-pyrrolo[4,33,2-d]pyrimidin-74-one], in data set [1], it took 0.27 nM to reach half-maximal inhibition (IC50).

On to `CCCc1cn(C)c2c(=O)[nH]c(-c3cc(S(=O)(=O)N4CCN(C)CC4)ccc3OCC)nc12` [Example 1, 52-(2-ethoxy-5-(4-methylpiperazinylpiperazin-1-ylsulfonyl)phenyl)-15-methyl-37-n-propyl-1,63,5-dihydro-7H4H-pyrrolo[4,33,2-d]pyrimidin-74-one], for which the melting point lay within 220.5 to 221 °C. Moreover, in data set [1], half-maximal inhibition (IC50) required 2.9 nM.

`CCOc1ccc(S(=O)(=O)N2CCN(CCCF)CC2)cc1-c1nc2c(CCCF)cn(CC)c2c(=O)[nH]1` [Example 26, 52-(2-ethoxy-5-(4-(3-fluoropropyl)piperazinylpiperazin-1-ylsulfonyl)phenyl)-15-ethyl-37(3-fluoropropyl)-1,63,5-dihydro-7H4H-pyrrolo-[4,33,2-d]pyrimidin-74-one] returned a melting point of 194 to 194.5 °C. In addition, the half-inhibitory concentration (IC50) in data set [1] is 0.62 nM.

In data set [1], `CCCOc1ccc(S(=O)(=O)N2CCN(CCO)CC2)cc1-c1nc2c(CCC)cn(CC)c2c(=O)[nH]1` [Example 31] showed a half-inhibitory concentration (IC50) of 0.33 nM.

In turn, `CCOc1ccc(S(=O)(=O)N2CCN(CCCF)CC2)cc1-c1nc2c(CC)cn(CC)c2c(=O)[nH]1` [Example 18, 52-(2-ethoxy-5-(4-(3-fluoropropyl)piperazinylpiperazin-1-ylsulfonyl)phenyl)-15-ethyl-37-ethyl-1,63,5-dihydro-7H4H-pyrrolo[4,33,2-d]pyrimidin-74-one] returned a melting point of 182 to 182.5 °C. This compound also yielded a half-maximal inhibitory concentration (IC50) in data set [1] of 2.23 nM.

As for `CCCOc1ccc(S(=O)(=O)N2CCN(CCO)CC2)cc1-c1nc2c(CCCF)cn(CC)c2c(=O)[nH]1` [Example 30], the melting point was in the range of 162 to 163 °C. Further, the IC50 in data set [1] came out at 0.18 nM.

With `CCCc1cn(C)c2c(=O)[nH]c(-c3cc(S(=O)(=O)N4CCC(CCC(=O)O)CC4)ccc3OCC)nc12` [Example 123, 52-(2-ethoxy-5-(4-(2-hydroxycarbonylethyl)piperidinylpiperidin-1-ylsulfonyl)phenyl)-15-methyl-37-n-propyl-1,63,5-dihydro-7H4H-pyrrolo[4,33,2-d]pyrimidin-74-one], the melting point lay in the range of 129 to 130.5 °C. This compound also displayed an IC50 in data set [1] of 0.71 nM.

`CCCc1cn(C)c2c(=O)[nH]c(-c3cc(S(=O)(=O)N4CCN(CCCF)CC4)ccc3OCC)nc12` [Example 14, 52-(2-ethoxy-5-(4-(3-fluoropropyl)piperazinylpiperazin-1-ylsulfonyl)phenyl)-15-methyl-37-n-propyl-1,63,5-dihydro-7H4-pyrrolo[4,33,2-d]pyrimidin-74-one] yielded a melting point of 217.5 to 218 °C. In addition, the IC50 in data set [1] worked out at 1.36 nM.

With `CCCOc1ccc(S(=O)(=O)N2CCN(CCCF)CC2)cc1-c1nc2c(CCC)cn(C)c2c(=O)[nH]1` [Example 37, 52-(5-(4-(3-fluoropropyl)piperazinylpiperazin-1-ylsulfonyl)-2-n-propoxyphenyl)-15-methyl-37-n-propyl-1,63,5-dihydro-7H4H-pyrrolo[4,33,2-d]pyrimidin-74-one], in data set [1], half-maximal inhibition (IC50) was put at 0.64 nM. This counts as sub-nanomolar.

Regarding `CCCOc1ccc(S(=O)(=O)N2CCN(C)CC2)cc1-c1nc2c(CCC)cn(C)c2c(=O)[nH]1` [Example 3, 52-(5-(4-methylpiperazinylpiperazin-1-ylsulfonyl)-2-n-propoxyphenyl)-15-methyl-37-n-propyl-1,63,5-dihydro-7H4H-pyrrolo[4,33,2-d]pyrimidin-74-one], the melting point was 183 to 183.5 °C. The same compound registered a half-maximal inhibitory concentration (IC50) in data set [1] of 0.59 nM.
